pIC50: −log10 of the molar value.
Legend:
HLA-DRB1*0401 = HLA-DRB1*0401 (Homo sapiens (Human), UniProt P01903+P01911, A100K/A169T/DEL228-266/F76Y/I96L/K127E/L162R/M171V/N62H/P40V/Q125Y/R42H/S133A/S149N/S66Y/V115G/V209L/W38E); test: HLA-DR4 HTRF assay; assay type: binding; settings: inhibition of loading of Alexa Fluor 647-labeled Cit-CII peptide onto HLA-DR4 (CLIP cleaved)
Method in brief: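 HLA-DRB1*04:01 construct (α/β fused to human Fc, CLIP pre-cleaved by HRV3C overnight at 4° C) at 3 nM was preincubated 45 min with compound and 1 nM anti-Fc-Tb donor, then 40 nM Alexa647-Cit-CII1236-1249 peptide added. After 90 min at 37° C, the 665/620 nm HTRF ratio gave % inhibition; IC50 by nonlinear regression.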

[1] = system: human peripheral blood CD4+ helper T cells; test: Pan-CD4+ T cell activation (off-target assay); assay type: cell-based; settings: anti-CD3/anti-CD28 stimulation, IL-2 production by ELISA
Method in brief: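 Human peripheral blood CD4+ T cells, with no APCs present, were stimulated with plate-bound anti-CD3 (1 μg/mL coating) plus soluble anti-CD28 (1 μg/mL) in the presence of compound or vehicle for 24 h. IL-2 in the supernatant was quantified by ELISA.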

[2] = system: HLA-DR4 restricted mouse T cell hybridoma line (DR4.CII.36.8) with HLA-DRB1*04:01-expressing Boleth cells; test: HLA-DR4-restricted peptide-specific T cell-based assay (hybridoma assay); settings: 6 h, inhibition of IL-2 production, CII259-273 peptide presented by Boleth cells
Method in brief: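 Boleth cells (HLA-DRB1*04:01 B cell line) pre-incubated with compound 1 h at 37° C. in DMEM/1% FCS, then DR4.CII.36.8 mouse T cell hybridoma (CII259-273-specific) added for 6 h with CII259-273 peptide. Supernatant mouse IL-2 by AlphaLISA; IC50 by 4-PL fit of 8-point duplicate titrations.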

Compound	pIC50 (HLA-DRB1*0401)	pIC50 ([1]; Homo sapiens, T-cell, 24 h)	pIC50 ([2]; Mus musculus, T-cell)	pIC50 ([1]; 24 hrs)	pIC50 [2]
NC(=O)c1ccc([C@H](Oc2ccc3c(c2)OCCC3=O)c2ccnc3ccccc23)cc1 (single isomer, unassigned) [Example 22b, (*S)-4-(((4-oxochroman-7-yl)oxy)(quinolin-4-yl)methyl)benzamide]	5.92	4.82	5.66		
Cc1c(O[C@H]2CCc3cc(C(N)=O)ccc32)ccc2c1OCCC2=O (single isomer, unassigned) [Example 121b, (*S)-1-((8-methyl-4-oxochroman-7-yl)oxy)-2,3-dihydro-1H-indene-5-carboxamide]	6.08	< 4.82	4.85		
NC(=O)c1ccc([C@@H](Oc2ccc3c(c2)O[C@H](c2ccccc2)CC3=O)c2ccncc2)cc1 (single isomer, unassigned) [Example 43b, 4-((*R)—(((*S)-4-oxo-2-phenylchroman-7-yl)oxy)(pyridin-4-yl)methyl)benzamide]	5.31	5.00	6.20		
O=C1CCOc2cc(OC(c3ccncc3)c3ccc(F)cc3)ccc21 (racemic) [Example 3, (R,S)-7-((4-Fluorophenyl)(pyridin-4-yl)methoxy)chroman-4-one]	6.00	< 4.82	5.43		
NC(=O)c1ccc([C@@H](Oc2ccc3c(c2)OCCC3=O)c2cccnc2)cc1 (single isomer, unassigned) [Example 31b, (*S)-4-(((4-oxochroman-7-yl)oxy)(pyridin-3-yl)methyl)benzamide]	6.19			< 4.82	5.46
NC(=O)c1cccc([C@H](Oc2ccc3c(c2)OCCC3=O)c2ccncc2)c1 (single isomer, unassigned) [Example 9b, (*S)-3-(((4-oxochroman-7-yl)oxy)(pyridin-4-yl)methyl)benzamide]	6.01	5.33	4.96		
Cc1cc2c(c(C)c1O[C@@H](c1ccncc1)c1ccc(C#N)cc1)OCCC2=O (single isomer, unassigned) [Example 88a, (*R)-4-(((6,8-dimethyl-4-oxochroman-7-yl)oxy)(pyridin-4-yl)methyl)benzonitrile]	6.40	< 4.82	5.66		
O=C1CCOc2cc(O[C@H](c3ccncc3)c3ccccc3F)ccc21 (single isomer, unassigned) [Example 1a, (*R)-7-((2-Fluorophenyl)(pyridin-4-yl)methoxy)chroman-4-one]	6.00	< 4.82	5.47		
N#Cc1ccc([C@@H](Oc2ccc3c(c2)OCCC3=O)c2ccncc2)cc1 (single isomer, unassigned) [Example 10a, (*R)-4-(((4-oxochroman-7-yl)oxy)(pyridin-4-yl)methyl)benzonitrile]	6.02	< 4.82	5.31		
COc1ccc([C@H](Oc2ccc3c(c2)OCCC3=O)c2ccncc2)cc1 (single isomer, unassigned) [Example 12b, (*S)-7-((4-Methoxyphenyl)(pyridin-4-yl)methoxy)chroman-4-one]	5.77	< 4.82	5.54		
Cc1cc2c(c(C)c1O[C@@H](c1ccncc1)c1ccc(C(N)=O)cc1)OCCC2=O (single isomer, unassigned) [Example 89a, (*R)-4-(((6,8-dimethyl-4-oxochroman-7-yl)oxy)(pyridin-4-yl)methyl)benzamide]	6.33	5.33	5.74		
CN(C)C(=O)c1ccc([C@H](Oc2ccc3c(c2)OCCC3=O)c2ccncc2)cc1 (single isomer, unassigned) [Example 72b, (*S)—N,N-dimethyl-4-(((4-oxochroman-7-yl)oxy)(pyridin-4-yl)methyl)benzamide]	6.16	< 4.82	4.96		
Cc1c(O[C@H](c2ccc(C(N)=O)cc2)c2cccc(F)c2)ccc2c1OCCC2=O (single isomer, unassigned) [Example 67a, (*R)-4-((3-Fluorophenyl)((8-methyl-4-oxochroman-7-yl)oxy)methyl)benzamide]	5.51	4.82	5.57		
CC[C@H]1COc2cc(O[C@H](c3ccncc3)c3ccc(C(N)=O)cc3)ccc2C1=O (single isomer, unassigned) [Example 45b, 4-((*S)—(((*S)-3-ethyl-4-oxochroman-7-yl)oxy)(pyridin-4-yl)methyl)benzamide]	5.85	< 4.82	5.00		
N#Cc1ccccc1[C@H](Oc1ccc2c(c1)OCCC2=O)c1ccncc1 (single isomer, unassigned) [Example 7a, (*R)-2-(((4-Oxochroman-7-yl)oxy)(pyridin-4-yl)methyl)benzonitrile]	6.16	5.36	5.34		
N#Cc1c(O[C@@H](c2ccncc2)c2ccc(C(N)=O)cc2)ccc2c1OCCC2=O (single isomer, unassigned) [Example 78a, (*R)-4-(((8-cyano-4-oxochroman-7-yl)oxy)(pyridin-4-yl)methyl)benzamide]	6.33	5.00	5.64		
O=C1CCOc2cc(O[C@H](c3ccncc3)c3ccc(F)cc3)ccc21 (single isomer, unassigned) [Example 3b, (*S)-7-((4-Fluorophenyl)(pyridin-4-yl)methoxy)chroman-4-one]	5.89	< 4.82	5.68		
O=C1CCOc2cc(OC(c3ccncc3)c3cccc(F)c3)ccc21 (racemic) [Example 2, (R,S)-7-((3-Fluorophenyl)(pyridin-4-yl)methoxy)chroman-4-one]	6.00	< 4.82	5.55		
NC(=O)c1ccc([C@H](Oc2cc3c(cc2-c2ccccc2)C(=O)CCO3)c2ccncc2)cc1 (single isomer, unassigned) [Example 54b, (*S)-4-(((4-oxo-6-phenylchroman-7-yl)oxy)(pyridin-4-yl)methyl)benzamide]	6.06	4.82	5.37		
Cc1c(O[C@@H](c2ccncc2)c2ccc(C(N)=O)cc2)ccc2c1OCCC2=O (single isomer, unassigned) [Example 48a, (*R)-4-(((8-methyl-4-oxochroman-7-yl)oxy)(pyridin-4-yl)methyl)benzamide]	6.17	5.00			6.85
Cc1c(O[C@@H](c2ccc(F)cc2)c2ccc(C(N)=O)cc2)ccc2c1OCCC2=O (single isomer, unassigned) [Example 66a, (*R)-4-((4-Fluorophenyl)((8-methyl-4-oxochroman-7-yl)oxy)methyl)benzamide]	5.57	5.33	5.11		
CCCc1c(O[C@@H](c2ccncc2)c2ccc(C(N)=O)cc2)ccc2c1OCCC2=O (single isomer, unassigned) [Example 80a, (*R)-4-(((4-Oxo-8-propylchroman-7-yl)oxy)(pyridin-4-yl)methyl)benzamide]	6.18	5.23	7.49		
NC(=O)c1ccc([C@@H](Oc2cc3c(cc2-c2ccccc2)C(=O)CCO3)c2ccncc2)cc1 (single isomer, unassigned) [Example 54a, (*R)-4-(((4-oxo-6-phenylchroman-7-yl)oxy)(pyridin-4-yl)methyl)benzamide]	6.20	6.28	7.11		
O=C1CCOc2cc(O[C@@H](c3ccncc3)c3cccc(F)c3)ccc21 (single isomer, unassigned) [Example 2b, (*S)-7-((3-Fluorophenyl)(pyridin-4-yl)methoxy)chroman-4-one]	5.74	< 4.82	5.41		
COc1ccc(C(Oc2ccc3c(c2)OCCC3=O)c2ccncc2)cc1 (racemic) [Example 12, (R,S)-7-((4-Methoxyphenyl)(pyridin-4-yl)methoxy)chroman-4-one]	5.92	< 4.82	5.80		
Cc1c(O[C@H](c2ccc(C(N)=O)cc2)c2ccccc2F)ccc2c1OCCC2=O (single isomer, unassigned) [Example 68a, (*R)-4-((2-Fluorophenyl)((8-methyl-4-oxochroman-7-yl)oxy)methyl)benzamide]	5.82	5.33	5.25		
COc1cccc([C@@H](Oc2ccc3c(c2)OCCC3=O)c2ccncc2)c1 (single isomer, unassigned) [Example 13b, (*S)-7-((3-methoxyphenyl)(pyridin-4-yl)methoxy)chroman-4-one]	5.85	< 4.82	5.33		
COc1cc([C@H](Oc2ccc3c(c2)OCCC3=O)c2ccc(C(N)=O)cc2)ccn1 (single isomer, unassigned) [Example 24a, (*R)-4-((2-methoxypyridin-4-yl)((4-oxochroman-7-yl)oxy)methyl)benzamide]	5.85	< 4.82	5.29		
